Legend:
[1] = system: secreted uPA protein in PC3 cells; assay: uPA protein ELISA assay of culture medium; type: cell-based, human; conditions: different doses, 24 h, per 50,000 viable cells
From the text: FIG. 3. PLAU gene expression and regulation by dasatinib analyzed at mRNA and protein levels. (A) Differential baseline expression of PLAU gene between resistant (R, in black) and sensitive (S, in red) cell lines. The X-values are the expression level in log2-scale. The resistant cell line expressing high level of PLAU was WPMY1 and the sensitive cell line expressing low level of PLAU was LNCaP. (B) Down-regulation of PLAU mRNA level by dasatinib-treatment in 5 sensitive cell lines. The cells were treated with 100 nM dasatinib (+D) or DMSO (Ctrl) for 48 hours. The p value was 0.048 in paired t-test, indicating a significant reduction of PLAU mRNA following dasatinib treatment. (C) Correlation between dasatinib-induced PLAU mRNA down-regulation with the sensitivity of cell lines to dasatinib. […] The amount of uPA protein secreted into the culture medium by 50,000 viable cells was assessed by ELISA assay. […]
Cell were seeded in 24-well plates at density of 25,000 cells/well. […] Total number of cells were also quantitated using a cell counter, and the number of viable cells were assessed with Trypan Blue. The amount of uPA protein in the supernatant was determined using the uPA ELISA kit (America Diagnostica, Stamford, Conn.), and the concentrations of uPA secreted by 50,000 viable cells into the medium were calculated.

[2] = system: imatinib-resistant BCR-ABL mutants; conditions: number of mutants of those tested; cited from earlier work

With `CC(=O)O[C@H]1C(=O)[C@@]2(C)[C@H]([C@H](OC(=O)c3ccccc3)[C@]3(O)C[C@H](OC(=O)[C@H](O)[C@@H](NC(=O)c4ccccc4)c4ccccc4)C(C)=C1C3(C)C)[C@]1(OC(C)=O)CO[C@@H]1C[C@@H]2O` [TAXOL®] the “amount of uPA protein secreted into the growth medium” value [1] was “did not see a dose-dependent reduction”.

In the case of `Cc1cn(-c2cc(NC(=O)c3ccc(C)c(Nc4nccc(-c5cccnc5)n4)c3)cc(C(F)(F)F)c2)cn1` [AMN107], the “imatinib-resistant BCR-ABL mutants against which significantly active” value [2] is given as 32/33.

From patent publication US20100120788A1, “IDENTIFICATION OF POLYNUCLEOTIDES FOR […] OF COMPOUNDS THAT […] WITH AND/OR MODULATE PROTEIN TYROSINE KINASES AND/OR PROTEIN TYROSINE KINASE […] IN PROSTATE CELLS” (Bristol-Myers Squibb Company, priority 2007, published 2010)
